Test results published in article PMC6820105, “Data on synthesis, ADME and pharmacological properties and early safety pharmacology evaluation of a series of novel NURR1/NOT agonist potentially useful for the treatment of Parkinson's disease” (Data in Brief, 2019).
Read-outs that look alike come from different tables or passages of the source. One block for each compound: values may come before it.

Tests used:
[1] = molecular target: NURR1/NOT nuclear receptor (Homo sapiens, UniProt P43354); test: Gal4 reporter gene assay (EC50 / Emax Gal4); type: cell-based; details: for Emax Gal4: Table 1
Sequence of NURR1/NOT nuclear receptor (P43354 whole entry, the tested form may be a part): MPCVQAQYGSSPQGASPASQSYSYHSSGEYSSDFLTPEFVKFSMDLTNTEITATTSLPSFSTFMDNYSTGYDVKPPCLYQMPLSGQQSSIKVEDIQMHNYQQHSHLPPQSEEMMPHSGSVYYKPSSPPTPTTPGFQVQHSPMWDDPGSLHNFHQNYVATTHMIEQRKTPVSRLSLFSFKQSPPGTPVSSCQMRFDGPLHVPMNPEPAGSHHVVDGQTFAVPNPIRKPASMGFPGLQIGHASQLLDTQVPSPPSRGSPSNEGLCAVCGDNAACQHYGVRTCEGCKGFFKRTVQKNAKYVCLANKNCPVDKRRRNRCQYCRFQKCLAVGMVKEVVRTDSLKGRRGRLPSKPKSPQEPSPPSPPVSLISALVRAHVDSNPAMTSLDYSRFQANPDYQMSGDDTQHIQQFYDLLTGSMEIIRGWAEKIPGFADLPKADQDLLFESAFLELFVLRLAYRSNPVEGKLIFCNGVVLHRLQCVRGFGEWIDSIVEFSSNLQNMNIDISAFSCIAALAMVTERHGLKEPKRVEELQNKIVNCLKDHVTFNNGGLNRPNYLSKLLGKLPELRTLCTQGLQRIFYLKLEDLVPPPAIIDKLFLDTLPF

[2] = test system: anesthetized male Hartley guinea pigs; test: Hemodynamic and electrocardiographic effects in anesthetized male Hartley guinea pigs; type: in vivo; details: guinea pig, 10 mg/kg single 5-min i.v. infusion, monitored up to 30 min, n = 6
Protocol: Male Hartley guinea pigs (weighing 400–500 g) were anesthetized with 35 mg/kg sodium pentobarbital i.p. and let under spontaneous breathing conditions. The body temperature was maintained at 37.5 ± 0.5 °C throughout the experiment. For implantation of vascular catheters, cutaneous incision, subcutaneous and muscular dissections were performed after application of local anesthetic (lidocain, 20 mg/kg). A carotid artery and a jugular vein were catheterized to allow recording of arterial blood pressure and intravenous administration of the drug, respectively. The arterial micromanometer catheter was connected to a pressure transducer. For the electrocardiogram recording, five electrodes were inserted in the subcutaneous layer of fore- and hind-limb. The pressure transducer and ECG electrodes were linked to Gould pre-amplifiers. The amplifiers were connected to a Notocord-Hem computerized data acquisition system and recorded at a sampling rate of 1000 Hz. Either lead I or lead II were recorded, depending on which the better separation of T wave from P wave of the next complex was achieved.
Cpd 38 was dissolved in a 75% PEG400 aqueous solution and administered to guinea pigs (n = 6) at 10 mg/kg as a single 5-min intravenous infusion under a volume of 0.5 mL/kg. Control animals (n = 10) received the vehicle only, under the same experimental conditions. […]

[3] = Plasma and heart concentrations after 5-min i.v. administration in anesthetized male Hartley guinea pigs; type: in vivo; details: iv, guinea pig, 10 mg/kg 5-min i.v.
Protocol: Cpd 38 was dissolved in a 75% PEG400 aqueous solution and administered to guinea pigs (n = 6) at 10 mg/kg as a single 5-min intravenous infusion under a volume of 0.5 mL/kg. Control animals (n = 10) received the vehicle only, under the same experimental conditions.
Blood samples were drawn from a carotid artery at 10 and 30 minutes after the beginning of the drug perfusion and after centrifugation plasma samples were stored frozen until analysis.
At the end of the experiment (around 30 minutes following the beginning of the drug perfusion), the heart was removed and a few grams of tissue were collected from right and left ventricles stored frozen at - 20 °C until analysis.
Analysis of samples was performed using an exploratory LC-MS-MS assay method. Plasma (LOQ of 2 ng/mL) and tissue (LOQ of 10 ng/g) concentrations of Cpd 38 (expressed as active ingredient).were determined.

[4] = test system: anesthetized mongrel dogs; test: Hemodynamic, electrocardiographic and electrophysiological effects in anesthetized mongrel dogs; type: in vivo; details: dog, 10 mg/kg single 5-min i.v. infusion, monitored up to 60 min, n = 3
Protocol: Six fasted adult mongrel dogs (weighing 18–26 kg) were anesthetized with 20 mg/kg sodium thiopental i.v. Animals were artificially ventilated with a gaseous mixture composed of O^2/air supplemented with around 1.5% end-tidal fraction of isoflurane. Tidal volume and respiratory rate was set at 20 mL/kg and 16 breaths/min. Arterial blood gas was controlled and respiratory adjusted to maintain pH between 7.36 and 7.44, PaO^2 > 80 mmHg and PaCO^2 < 40 mmHg. Four limbs electrodes were positioned to obtain a surface ECG. Two bipolar electrodes were positioned in the right atrium via a jugular access, one to record the atrial electrogram and the second one to stimulate the atrium. A bipolar electrode and a quadripolar electrode were inserted via venous and arterial femoral access and positioned in the right ventricular apex and in the His bundle region, respectively. These electrodes were connected to a programmable stimulator and to a computerized physiograph system. […]
The auricular diastolic stimulation threshold was evaluated with rectangular current pulse (2 ms duration) increased in steps of 0.1 mA and delivered at fixed rate pacing (S1S1) of 400 or 350 ms in function of animal basal cycle length. […]

[5] = Plasma and heart concentrations after 5-min i.v. administration in anesthetized mongrel dogs; type: in vivo; details: iv, dog, 10 mg/kg 5-min i.v.
Protocol: Cpd 38 was dissolved in a 75% PEG400 aqueous solution and administered to dogs (n = 3) at 10 mg/kg as a single 5-min intravenous infusion under a volume of 0.5 mL/kg. Control animals (n = 3) received the vehicle only, under the same experimental conditions.
Blood samples were drawn from a femoral artery at 10 and 60 minutes after the beginning of the drug perfusion and after centrifugation plasma samples were stored frozen at −20 °C until analysis.
At the end of the experiment (around 60 minutes following the beginning of the drug perfusion), the heart was removed and a few grams of tissue were collected from right and left ventricles stored frozen at - 20 °C until analysis.
Analysis of samples was performed using an exploratory LC-MS-MS assay method. Plasma (LOQ of 2 ng/mL) and tissue (LOQ of 3 ng/g) concentrations of Cpd 38 were determined.

[6] = Table 1, replacements of the hydroxymethyl of cpd 4, read-out: EC50 Gal4
[7] = heart (right and left ventricles), read-out: Heart concentration
[8] = plasma, mean ± SD, n = 6, read-out: Total plasma concentration
[9] = plasma, read-out: Total plasma concentration
[10] = plasma, mean ± SD, n = 3, read-out: Total plasma concentration

- melting point: 162 to 164 °C
SMILES: CCN(CC)C(=O)c1cccc(-c2ccc3nc(-c4ccc(Cl)cc4)cn3c2)c1 [Cpd S9, 3-(2-(4-chlorophenyl)imidazo[1,2-a]pyridin-6-yl)-N,N-diethylbenzamide]

- melting point: 290 to 292 °C
SMILES: CN(C)Cc1cccc(-c2ccc3nc(-c4ccc(Cl)cc4)cn3c2)c1 [Cpd S3, 1-(3-(2-(4-chlorophenyl)imidazo[1,2-a]pyridin-6-yl)phenyl)-N,N-dimethylmethanamine]

- melting point: 225 to 227 °C
- Emax Gal4 [1]: 226 ± 66
- EC50 [1, 6]: 0.087 ± 0.028 µM
SMILES: CNC(=O)c1cccc(-c2ccc3nc(-c4ccc(Cl)cc4)cn3c2)c1 [Cpd S8, 3-(2-(4-chlorophenyl)imidazo[1,2-a]pyridin-6-yl)-N-methylbenzamide]

- melting point: 246 to 248 °C
- Emax Gal4 [1]: 210 ± 5
- EC50 [1, 6]: 1.58 ± 0.035 µM
SMILES: NC(=O)c1cccc(-c2ccc3nc(-c4ccc(Cl)cc4)cn3c2)c1 [Cpd S7, 3-(2-(4-chlorophenyl)imidazo[1,2-a]pyridin-6-yl)benzamide]

- EC50 ([1]; Table 2, alkyl or aryl groups on the carbinol, read-out: EC50 Gal4 t): > 3 µM
SMILES: CC(C)CC(O)c1cccc(-c2ccc3nc(-c4ccc(Cl)cc4)cn3c2)c1 (stereo not drawn) [Cpd S15, 1-(3-(2-(4-chlorophenyl)imidazo[1,2-a]pyridin-6-yl)phenyl)-3-methylbutan-1-ol]

- melting point: 135 to 137 °C
SMILES: COCc1cccc(-c2ccc3nc(-c4ccc(Cl)cc4)cn3c2)c1 [Cpd S2, 2-(4-Chlorophenyl)-6-(3-(methoxymethyl)phenyl)imidazo[1,2-a]pyridine]

- melting point: 195 to 197 °C
SMILES: N#Cc1cccc(-c2ccc3nc(-c4ccc(Cl)cc4)cn3c2)c1 [Cpd S10, 3-(2-(4-chlorophenyl)imidazo[1,2-a]pyridin-6-yl)benzonitrile]

- melting point: 192 to 194 °C
SMILES: CC(O)(CO)c1cccc(-c2ccc3nc(-c4ccc(Cl)cc4)cn3c2)c1 (stereo not drawn) [Cpd 41, 2-(3-(2-(4-chlorophenyl)imidazo[1,2-a]pyridin-6-yl)phenyl)propane-1,2-diol]

- melting point: 224 to 225 °C
SMILES: OC1(c2cccc(-c3ccc4nc(-c5ccc(Cl)cc5)cn4c3)c2)CCOCC1 [Cpd 40, 4-(3-(2-(4-chlorophenyl)imidazo[1,2-a]pyridin-6-yl)phenyl)tetrahydro-2H-pyran-4-ol]

- EC50 [1, 6]: > 3 µM
SMILES: Clc1ccc(-c2cn3cc(-c4cccc(CN5CCCC5)c4)ccc3n2)cc1 [Cpd S4, 1-(3-(2-(4-chlorophenyl)imidazo[1,2-a]pyridin-6-yl)phenyl)-N-pyrolidine]

- concentration at 30 min ([3]; heart (right and left ventricles), mean ± SD, n = 6, read-out: Heart concentration): 6010 ± 964 ng/g
- concentration at 30 min [3, 7]: 16.6 µM
- concentration at 10 min [3, 8]: 4660 ± 1350 ng/mL
- concentration at 10 min [3, 9]: 12.8 µM
- concentration at 30 min [3, 8]: 2570 ± 533 ng/mL
- concentration at 30 min [3, 9]: 7.1 µM
- concentration at 60 min ([5]; heart (right and left ventricles), mean ± SD, n = 3, read-out: Heart concentration): 14600 ± 2700 ng/g
- concentration at 60 min [5, 7]: 40.2 µM
- concentration at 10 min [5, 10]: 23400 ± 2830 ng/mL
- concentration at 10 min [5, 9]: 64.5 µM
- concentration at 60 min [5, 10]: 10100 ± 769 ng/mL
- concentration at 60 min [5, 9]: 27.8 µM
SMILES: CC(C)(O)c1cccc(-c2ccc3nc(-c4ccc(Cl)cc4)cn3c2)c1 [Cpd 38, 2-(3-[2-(4-Chlorophenyl)imidazo[1,2-a]pyridin-6-yl]phenyl)propan-2-ol]
- Hemodynamic and ECG effects [2]: No major hemodynamic and ECG effects were observed
- Hemodynamic, ECG and electrophysiological effects [4]: No major hemodynamic, ECG and electrophysiological effects were observed

- melting point: 145 to 147 °C
SMILES: Cc1cccc(-c2ccc3nc(-c4ccc(Cl)cc4)cn3c2)c1 [Cpd S1, 2-(4-Chlorophenyl)-6-(m-tolyl)imidazo[1,2-a]pyridine]

- EC50 [1, 6]: > 3 µM
SMILES: Clc1ccc(-c2cn3cc(-c4cccc(CN5CCOCC5)c4)ccc3n2)cc1 [Cpd S5, 1-(3-(2-(4-chlorophenyl)imidazo[1,2-a]pyridin-6-yl)phenyl)-N-morpholine]
